Test results: US10350211B2, “Bumped kinase inhibitor compositions and methods for treating cancer” (UNIVERSITY OF WASHINGTON, priority 2015, dated 2019)

Experiments:
[1] = system: prostate cancer AR− as well as AR+ lines; settings: cited from earlier work
PKD = settings: cited from earlier work
[2] = system: other human kinases beyond PKDs, including mutated Src; settings: cited from earlier work
[3] = cited from earlier work
[4] = therapeutic levels cannot be obtained in vivo; cited from earlier work
MDA231 cell = test: Breast cancer cell proliferation, MDA231; assay type: cell-based; settings: 72 hours; tested at 0.2, 2, and 20 μM, concentration of the values not given
Procedure: (§1) MCF7 and MDA231 cell lines were plated at 2000 and 1000 cells/well, respectively. 24 hours later, BKI inhibitor of the disclosure was added to each well at concentrations of 0.2, 2, and 20 μM. After 72 hours, […] was used to measure cell growth.

MCF7 cell = test: Breast cancer cell proliferation, MCF7; assay type: cell-based; settings: 72 hours; tested at 0.2, 2, and 20 μM, concentration of the values not given
Procedure: as §1

PCa tumor = settings: 60 mg/kg, 2× daily; cited from earlier work

Question: For `CC(C)(C)n1nc(-c2cccc3ccccc23)c2c(N)ncnc21` [Example 1NA-PP1], which “prostate cancer cell growth/proliferation” value [1] is on record?
Answer: The value was “potently blocked”.

Question: And the PKD kinase activity (PKD)?
Answer: Its PKD kinase activity is “potently blocked”.

Question: And the off-target kinases [2]?
Answer: Its off-target kinases is “target other human kinases beyond PKDs, including mutated Src”.

Question: And the solubility [3]?
Answer: Its solubility is “low solubility”.

Question: What about the metabolism [4] of the same compound?
Answer: The metabolism was “quickly metabolized”.

Question: Which “prostate cancer cell growth/proliferation” value [1] does the source give for `CC(C)(C)n1nc(Cc2cccc3ccccc23)c2c(N)ncnc21` [Example 1NM-PP1] here?
Answer: The value was “potently blocked”.

Question: What about the PKD kinase activity (PKD) of the same compound?
Answer: Its PKD kinase activity is “potently blocked”.

Question: And the off-target kinases [2]?
Answer: Its off-target kinases is “target other human kinases beyond PKDs, including mutated Src”.

Question: What about the solubility [3] of the same compound?
Answer: The solubility was “low solubility”.

Question: And the metabolism [4]?
Answer: The metabolism was “quickly metabolized”.

Question: With `CN1CCC(Cn2nc(-c3ccc4cc(OC5CC5)ccc4c3)c3c(N)ncnc32)CC1` [Example 4, 3-(6-Cyclopropoxynaphthalen-2-yl)-1-((1-methylpiperidin-4-yl)methyl)-1H-pyrazolo[3,4-d]pyrimidin-4-amine] as the compound, how does the “MDA231 cell inhibition (%)” value (MDA231 cell) read?
Answer: Its value is 60%.

Question: And the “MCF7 cell inhibition (%)” value (MCF7 cell)?
Answer: The value was 50%.

Question: With `CCOc1ccc2cc(-c3nn(CC4CCN(C)CC4)c4ncnc(N)c34)ccc2n1` [Example 15, 3-(2-Ethoxyquinolin-6-yl)-1-((1-methylpiperidin-4-yl)methyl)-1H-pyrazolo[3,4-d]pyrimidin-4-amine] as the compound, how does the “MDA231 cell inhibition (%)” value (MDA231 cell) read?
Answer: Its value is 30%.

Question: What about the “MCF7 cell inhibition (%)” value (MCF7 cell) of the same compound?
Answer: The value was 40%.

Question: With `CN1CCC(Cn2nc(-c3ccc4nc(OCC(F)(F)F)ccc4c3)c3c(N)ncnc32)CC1` [Example 16, 1-((1-Methylpiperidin-4-yl)methyl)-3-(2-(2,2,2-trifluoroethoxy)quinolin-6-yl)-1H-pyrazolo[3,4-d]pyrimidin-4-amine] as the compound, how does the “MDA231 cell inhibition (%)” value (MDA231 cell) read?
Answer: The value was 90%.

Question: And the “MCF7 cell inhibition (%)” value (MCF7 cell)?
Answer: The value was 50%.

Question: With `CC(C)(O)Cn1nc(-c2ccc3nc(OC4CC4)ccc3c2)c2c(N)ncnc21` [Example 25, 1-(4-Amino-3-(2-cyclopropoxyquinolin-6-yl)-1H-pyrazolo[3,4-d]pyrimidin-1-yl)-2-methylpropan-2-ol] as the compound, how does the “MDA231 cell inhibition (%)” value (MDA231 cell) read?
Answer: Its value is 20%.

Question: And the “MCF7 cell inhibition (%)” value (MCF7 cell)?
Answer: The value was 30%.

Question: What does the source list for `CCOc1ccc2ccc(-c3nn(CC4CCNCC4)c4ncnc(N)c34)cc2c1` [Example 51, 3-(7-ethoxynaphthalen-2-yl)-1-(piperidin-4-ylmethyl)-1H-pyrazolo[3,4-d]pyrimidin-4-amine]?
Answer: MDA231 cell inhibition (%) (MDA231 cell): 95%; MCF7 cell inhibition (%) (MCF7 cell): 97%

Question: Which “MDA231 cell inhibition (%)” value (MDA231 cell) does the source give for `CC(C)(O)Cn1cc(-c2ccc3nc(OC4CC4)ccc3c2)c2c(N)ncnc21` [Example 58, 1-(4-amino-5-(2-cyclopropoxyquinolin-6-yl)-7H-pyrrolo[2,3-d]pyrimidin-7-yl)-2-methylpropan-2-ol] here?
Answer: Its value is 10%.

Question: And the “MCF7 cell inhibition (%)” value (MCF7 cell)?
Answer: Its value is 50%.

Question: For `Nc1ncnc2c1c(-c1ccc3nc(OC4CC4)ccc3c1)nn2CC1(CO)COC1` [Example 67, (3-((4-amino-3-(2-cyclopropoxyquinolin-6-yl)-1H-pyrazolo[3,4-d]pyrimidin-1-yl)methyl)oxetan-3-yl)methanol], which “MDA231 cell inhibition (%)” value (MDA231 cell) is on record?
Answer: The value was 0%.

Question: What about the “MCF7 cell inhibition (%)” value (MCF7 cell) of the same compound?
Answer: Its value is 40%.

Question: What does the source list for `CCOc1ccc2cc(-c3nn(C4CCN(CC)CC4)c4ncnc(N)c34)ccc2c1` [Example 109, 3-(6-ethoxynaphthalen-2-yl)-1-(1-ethylpiperidin-4-yl)-1H-pyrazolo[3,4-d]pyrimidin-4-amine]?
Answer: MDA231 cell inhibition (%) (MDA231 cell): 50%; MCF7 cell inhibition (%) (MCF7 cell): 50%

Question: For `CCOc1ccc2cc(-c3nn(C(C)C)c4ncnc(N)c34)ccc2n1` [Example 110, 3-(2-ethoxyquinolin-6-yl)-1-isopropyl-1H-pyrazolo[3,4-d]pyrimidin-4-amine], which “MDA231 cell inhibition (%)” value (MDA231 cell) is on record?
Answer: The value was 10%.

Question: What about the “MCF7 cell inhibition (%)” value (MCF7 cell) of the same compound?
Answer: Its value is 30%.

Question: With `CCOc1ccc2cc(-c3nn(C4CCNCC4)c4ncnc(N)c34)ccc2c1` [Example 111, 3-(6-ethoxynaphthalen-2-yl)-1-(piperidin-4-yl)-1H-pyrazolo[3,4-d]pyrimidin-4-amine] as the compound, how does the “MDA231 cell inhibition (%)” value (MDA231 cell) read?
Answer: The value was 90%.

Question: And the “MCF7 cell inhibition (%)” value (MCF7 cell)?
Answer: Its value is 70%.

Question: For `CCOc1ccc2cc(-c3nc(CC4CCNCC4)n4ccnc(N)c34)ccc2c1` [Example 120, 1-(6-ethoxynaphthalen-2-yl)-3-(piperidin-4-ylmethyl)imidazo[1,5-a]pyrazin-8-amine], which “MDA231 cell inhibition (%)” value (MDA231 cell) is on record?
Answer: Its value is 50%.

Question: And the “MCF7 cell inhibition (%)” value (MCF7 cell)?
Answer: The value was 30%.

Question: Which results are given for `CCOc1ccc2cc(-c3nn(CC4CCNCC4)c4ncnc(N)c34)ccc2n1` [Example 127, 3-(2-ethoxyquinolin-6-yl)-1-(piperidin-4-ylmethyl)-1H-pyrazolo[3,4-d]pyrimidin-4-amine]?
Answer: MDA231 cell inhibition (%) (MDA231 cell): 0%; MCF7 cell inhibition (%) (MCF7 cell): 50%

Question: Which results are given for `CCOc1ccc2cc(-c3nn(CC4CCN(C)CC4)c4ncnc(N)c34)ccc2c1` [Example 128]?
Answer: MDA231 cell inhibition (%) (MDA231 cell): 50%; MCF7 cell inhibition (%) (MCF7 cell): 40%

Question: Which “MDA231 cell inhibition (%)” value (MDA231 cell) does the source give for `CCCOc1ccc2cc(-c3nn(CC4CCNCC4)c4ncnc(N)c34)ccc2c1` [Example 129, 1-(piperidin-4-ylmethyl)-3-(6-propoxynaphthalen-2-yl)-1H-pyrazolo[3,4-d]pyrimidin-4-amine] here?
Answer: The value was 90%.

Question: And the “MCF7 cell inhibition (%)” value (MCF7 cell)?
Answer: Its value is 75%.

Question: With `CC(C)Oc1ccc2cc(-c3nn(CC4CCNCC4)c4ncnc(N)c34)ccc2c1` [Example 130, 3-(6-isopropoxynaphthalen-2-yl)-1-(piperidin-4-ylmethyl)-1H-pyrazolo[3,4-d]pyrimidin-4-amine] as the compound, how does the “MDA231 cell inhibition (%)” value (MDA231 cell) read?
Answer: Its value is 80%.

Question: What about the “MCF7 cell inhibition (%)” value (MCF7 cell) of the same compound?
Answer: The value was 30%.

Question: With `Fc1ccc(Cl)cc1-c1nc(Nc2ccncc2)c2nccnc2n1` [SD-208] as the compound, how does the “prostate cancer cell growth/proliferation” value [1] read?
Answer: The value was “potently blocked”.

Question: What about the PKD kinase activity (PKD) of the same compound?
Answer: Its PKD kinase activity is “potently blocked”.

Question: What about the PCa tumor growth (PCa tumor) of the same compound?
Answer: Its PCa tumor growth is “decrease in PCa tumor growth”.
